Experimental data reported in ChEMBL document CHEMBL4118176, “N-aryl-piperidine-4-carboxamides as a novel class of potent inhibitors of MALT1 proteolytic activity” (Bioorg Med Chem Lett, 2018).
pEC50, pIC50: −log10 of the molar value. ≈ marks a conversion by molar mass, not a printed value. Blank lines part the entries; values can stand above or below the molecule they belong to.

What was measured:
[1] = molecular target: Mucosa-associated lymphoid tissue lymphoma translocation protein 1 (Homo sapiens, UniProt Q9UDY8); experiment: Inhibition of cIAP2 fused MALT1 (unknown origin) expressed in HEK293 cells assessed as suppression of NF-kB activation after 24 hrs by luciferase reporter gene assay; assay type: cell-based
[2] = molecular target: T1, Mucosa-associated lymphoid tissue lymphoma translocation protein 1 (Homo sapiens, UniProt Q9UDY8); experiment: Inhibition of MALT1 (unknown origin) using Ac-Trp-Leu-Arg-Ser-Arg'Cys(PT14)-NH2 as substrate preincubated for 60 mins followed by substrate addition measured after 60 mins by fluorescence assay
T1 sequence (Q9UDY8 whole entry): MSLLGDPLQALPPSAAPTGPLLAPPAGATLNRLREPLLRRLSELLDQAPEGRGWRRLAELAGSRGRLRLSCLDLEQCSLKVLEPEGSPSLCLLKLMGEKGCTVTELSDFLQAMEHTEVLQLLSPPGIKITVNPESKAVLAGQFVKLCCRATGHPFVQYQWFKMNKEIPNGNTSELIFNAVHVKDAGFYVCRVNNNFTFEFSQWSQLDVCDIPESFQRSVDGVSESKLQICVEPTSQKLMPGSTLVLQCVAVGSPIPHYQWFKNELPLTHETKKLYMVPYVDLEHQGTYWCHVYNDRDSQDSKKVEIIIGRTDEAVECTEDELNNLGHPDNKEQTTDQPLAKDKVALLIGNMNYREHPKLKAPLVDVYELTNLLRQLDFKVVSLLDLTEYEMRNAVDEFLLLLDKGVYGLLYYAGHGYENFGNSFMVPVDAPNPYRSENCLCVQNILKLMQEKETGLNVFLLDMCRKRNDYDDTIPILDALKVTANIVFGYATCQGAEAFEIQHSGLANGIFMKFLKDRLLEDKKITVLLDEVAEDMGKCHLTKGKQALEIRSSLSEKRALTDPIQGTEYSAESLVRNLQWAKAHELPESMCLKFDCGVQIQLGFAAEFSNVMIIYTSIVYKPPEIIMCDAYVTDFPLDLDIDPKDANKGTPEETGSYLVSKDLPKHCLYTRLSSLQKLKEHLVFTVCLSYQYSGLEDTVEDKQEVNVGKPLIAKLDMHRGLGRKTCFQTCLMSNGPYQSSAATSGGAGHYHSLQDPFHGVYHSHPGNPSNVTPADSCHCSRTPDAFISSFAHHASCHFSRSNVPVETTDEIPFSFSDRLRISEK

[3] = molecular target: T1, Mucosa-associated lymphoid tissue lymphoma translocation protein 1; experiment: Inhibition of MALT1 in human OCI-LY3 cells assessed a decrease in BCL10 cleavage after 24 hrs by ELISA; assay type: cell-based
[4] = Clearance in rat at 1 mg/kg, iv or 3 mg/kg, po; assay type: ADME, organism-based; conditions: in vivo
[5] = Solubility of the compound in buffer at pH 4; assay type: physicochemical
[6] = Clearance in rat liver microsomes; assay type: ADME, microsome; conditions: read-out: CLH
[7] = Clearance in rat hepatocytes assessed per 10^6 cells; assay type: ADME, cell-based, Hepatocyte
[8] = Volume of distribution at steady state in rat at 1 mg/kg, iv or 3 mg/kg, po; assay type: ADME, organism-based; conditions: in vivo, read-out: Vdss
[9] = Oral bioavailability in rat at 3 mg/kg; assay type: ADME, organism-based; conditions: in vivo
[10] = AUC in rat at 1 mg/kg, iv; assay type: ADME, organism-based; conditions: in vivo
[11] = Half life in rat at 1 mg/kg, iv or 3 mg/kg, po; assay type: ADME, organism-based; conditions: in vivo
[12] = Solubility of the compound in buffer at pH 6.8; assay type: physicochemical
BJAB = experiment: Antiproliferative activity against human BJAB cells after 72 hrs by CellTiterGlo assay; assay type: functional, cell-based
[13] = molecular target: T1, Mucosa-associated lymphoid tissue lymphoma translocation protein 1; experiment: Inhibition of MALT1 in PMA-stimulated human Jurkat T cells assessed as reduction in IL2 level pretreated for 30 mins followed by PMA-stimulation measured after 5.5 hr by bioluminescence assay; assay type: cell-based
OCI-Ly3 = experiment: Antiproliferative activity against human OCI-LY3 cells after 72 hrs by CellTiterGlo assay; assay type: functional, cell-based; conditions: OCI-Ly3, 72 h
[14] = Apparent permeability from apical to basolateral side in human Caco2 cells; assay type: ADME, cell-based; conditions: Caco-2

pIC50 [1]: 5.51
pIC50 [2]: 5.79
pEC50 [3]: 5.27
SMILES: O=C(Nc1ccc(F)c(Cl)c1)C1CCN(c2ncccn2)CC1

pIC50 [1]: 6.19
clearance [4]: 43 mL/min/kg
solubility [5]: 170 µM (≈ 77.5 µg/mL)
pIC50 [2]: 6.74
CLint scaled [6]: 29 mL/min/kg
CLH [7]: 4.1 µL/min/1e6 cells
Vd [8]: 1.1 L/kg
bioavailability [9]: 46%
AUC [10]: 0.914 µM·h
half-life [11]: 30 min
solubility [12]: 7 µM (≈ 3.19 µg/mL)
SMILES: Cc1nc(C)n(-c2ccc(NC(=O)C3CCN(c4ncccc4[N+](=O)[O-])CC3)cc2Cl)n1

pIC50 [2]: 5.33
SMILES: O=C(Nc1ccccc1)C1CCN(c2ncccc2Cl)CC1

pIC50 [2]: < 4.00
SMILES: CC(C)CN1CCC(C(=O)Nc2ccc(F)c(Cl)c2)CC1

pIC50 [2]: < 4.00
SMILES: O=C(NC1CCCCC1)C1CCN(c2ncccc2Cl)CC1

pIC50 [1]: 6.54
pIC50 [2]: 7.00
pEC50 [3]: 6.40
SMILES: O=C(Nc1ccc(F)c(Cl)c1)C1CCN(c2nccnc2Cl)CC1

pIC50 [1]: 6.72
pIC50 [2]: 7.89
pEC50 [3]: 6.35
SMILES: COc1ncc(NC(=O)C2CCN(c3ncccc3Cl)CC2)cc1Cl

pIC50 [1]: 5.80
pIC50 [2]: 6.68
pEC50 [3]: 5.47
SMILES: O=C(Nc1cccc(Cl)c1)C1CCN(c2ncccc2Cl)CC1

pIC50 [1]: 5.49
pIC50 [2]: 6.09
pEC50 [3]: 5.04
SMILES: O=C(Nc1ccc(F)c(Cl)c1)C1CCN(c2ccccc2)CC1

pIC50 [1]: 5.43
clearance [4]: 320 mL/min/kg
solubility [5]: < 4 µM
pIC50 [2]: 7.27
CLint scaled [6]: 81 mL/min/kg
CLH [7]: 173 µL/min/1e6 cells
Vd [8]: 21.4 L/kg
AUC [10]: 0.143 µM·h
half-life [11]: 120 min
solubility [12]: < 4 µM
SMILES: Cc1ccc(NC(=O)C2CCN(c3ncccc3Cl)CC2)cc1Cl

pIC50 [1]: 5.87
pIC50 [2]: 7.55
pEC50 [3]: 5.82
SMILES: O=C(Nc1ccc(F)c(Cl)c1)C1CCN(c2ncccc2Cl)CC1

pIC50 [1]: 5.57
pIC50 [2]: 6.38
pEC50 [3]: 5.68
SMILES: N#Cc1cccnc1N1CCC(C(=O)Nc2ccc(F)c(Cl)c2)CC1

pIC50 [1]: 7.05
pIC50 [2]: 8.40
pIC50 [13]: 7.30
pEC50 [3]: 6.64
pEC50 (OCI-Ly3): 5.85
SMILES: O=C(Nc1cnc(-n2nccn2)c(Cl)c1)C1CCN(c2ncccc2Cl)CC1
pEC50 (BJAB): < 5.00

pIC50 [1]: 7.05
pIC50 [2]: 8.15
pIC50 [13]: 7.10
pEC50 [3]: 6.25
pEC50 (OCI-Ly3): 5.44
SMILES: Nc1cccnc1N1CCC(C(=O)Nc2cnc(-n3nccn3)c(Cl)c2)CC1
pEC50 (BJAB): < 5.00

pIC50 [2]: 5.72
SMILES: O=C(Nc1ccc(F)c(Cl)c1)C1CCN(c2ccccn2)CC1

pIC50 [1]: 5.52
clearance [4]: 56 mL/min/kg
solubility [5]: 690 µM (≈ 320 µg/mL)
pIC50 [2]: 6.47
CLint scaled [6]: 60.2 mL/min/kg
CLH [7]: 18.8 µL/min/1e6 cells
Vd [8]: 8.7 L/kg
bioavailability [9]: 46%
Papp A→B [14]: 7.2 ×10⁻⁶ cm/s
AUC [10]: 0.623 µM·h
half-life [11]: 144 min
solubility [12]: 16 µM (≈ 7.42 µg/mL)
SMILES: Cc1cn(-c2cc(NC(=O)C3CCN(c4ncccc4Cl)CC3)cc(C(F)(F)F)c2)cn1

pIC50 [1]: 6.85
clearance [4]: 282 mL/min/kg
solubility [5]: 8 µM (≈ 3.79 µg/mL)
pIC50 [2]: 7.68
CLint scaled [6]: 59.8 mL/min/kg
CLH [7]: 228 µL/min/1e6 cells
Vd [8]: 7.5 L/kg
Papp A→B [14]: 8.2 ×10⁻⁶ cm/s
AUC [10]: 0.125 µM·h
pEC50 [3]: 6.68
half-life [11]: 36 min
solubility [12]: < 4 µM
SMILES: CNC(=O)c1ncn(-c2ccc(NC(=O)C3CCN(c4ncccc4Cl)CC3)cc2Cl)n1

pIC50 [2]: < 4.00
SMILES: O=C(Nc1ccc(F)c(Cl)c1)C1CCN(Cc2ccc(F)cc2)CC1

pIC50 [1]: 6.38
pIC50 [2]: 7.00
pEC50 [3]: 6.27
SMILES: Nc1cccnc1N1CCC(C(=O)Nc2ccc(F)c(Cl)c2)CC1

pIC50 [2]: 5.05
SMILES: N#Cc1ccnc(N2CCC(C(=O)Nc3ccc(F)c(Cl)c3)CC2)c1

pIC50 [1]: 6.96
clearance [4]: 259 mL/min/kg
solubility [5]: 48 µM (≈ 19.1 µg/mL)
pIC50 [2]: 7.46
CLint scaled [6]: 102 mL/min/kg
Vd [8]: 4.1 L/kg
Papp A→B [14]: 19.4 ×10⁻⁶ cm/s
AUC [10]: 0.161 µM·h
pEC50 [3]: 6.72
half-life [11]: 18 min
pEC50 (OCI-Ly3): 5.70
solubility [12]: < 4 µM
SMILES: Nc1cccnc1N1CCC(C(=O)Nc2ccc(-n3nccn3)c(Cl)c2)CC1
pEC50 (BJAB): < 5.00
